Results published in paper PMC10046946, “Novel Phthalic-Based Anticancer Tyrosine Kinase Inhibitors: Design, Synthesis and Biological Activity” (Current Issues in Molecular Biology, 2023).

What was measured:
[1] = tested on: OKP-GS (renal cell carcinoma); test: MTT cell proliferation assay, OKP-GS; type: cell-based; conditions: 72 h of exposition, read-out: Anti-proliferative activity IC50, OKP-GS
Procedure: (§1) Tests to determine the effects of the synthesized compounds on cell viability and the half-maximal inhibitory concentration (IC50) were performed using the MTT assay, as described in our prior work.
(§2) The target compounds 5, 6, 8–12, 14, 15, 17–22 and 24–26 were tested for antiproliferative activity against six cancer cell lines: K562 (chronic myelogenous leukemia), HL-60 (promyelocytic leukemia), MCF-7 (breast adenocarcinoma), HepG2 (human liver cancer), A549 (lung carcinoma) and OKP-GS (renal cell carcinoma). The RPMI 1788 cells (B lymphocyte, human) were used as a control to evaluate the system toxicity of the studied compounds to normal cells. Sorafenib, nilotinib and lapatinib were utilized as reference standards for comparison.

A549 (lung carcinoma) = test: MTT cell proliferation assay, A549; type: cell-based; conditions: Homo sapiens, A549, 72 h of exposition, read-out: Anti-proliferative activity IC50, A549
Procedure: as §1, §2

HER2 = target: T1, HER2 (Homo sapiens, UniProt P04626); test: ADP-Glo kinase assay, HER2; type: biochemical
T1 construct: purchased Promega
Procedure: (§3) The ADP-Glo kinase assay (Promega, Madison, WI, USA) was used to screen compounds 5, 8–10, 14, 17, 19 and 24 for the tyrosine kinase (Kinase Selectivity Profiling System TK-1, Promega, Madison, WI, USA) and serine/threonine kinase (Kinase Selectivity Profiling System Other/CK-1, Promega, Madison, WI, USA) inhibition effects according to the manufacturer’s technical manual. The luminescence data were analyzed as described in our prior work.
(§4) The selectivity of the potential kinase inhibitor against a specific protein kinase or a specific family of kinases was investigated using the Kinase Selectivity Profiling System TK-1, Other/CK-1 and ADP-Glo™ Kinase assay kit (Promega, Madison, WI, USA).

PDGFRα = target: T2, PDGFRα (Homo sapiens, UniProt P16234); test: ADP-Glo kinase assay, PDGFRα; type: biochemical
T2 construct: purchased Promega
Procedure: as §3, §4

Aurora B = target: T3, Aurora B (Homo sapiens, UniProt Q96GD4); test: ADP-Glo kinase assay, Aurora B; type: biochemical
T3 construct: purchased Promega
Procedure: as §3, §4

[2] = tested on: RPMI 1788 cells (B lymphocyte, human); test: MTT cell proliferation assay, normal RPMI 1788 cells; type: cell-based; conditions: normal human lymphoblastoid cells RPMI 1788, 72 h of exposition, read-out: Anti-proliferative activity IC50, RPMI 1788
Procedure: as §1, §2

[3] = tested on: HL-60 (promyelocytic leukemia); test: MTT cell proliferation assay, HL-60; type: cell-based; conditions: Homo sapiens, HL-60, 72 h of exposition, read-out: Anti-proliferative activity IC50, HL-60
Procedure: as §1, §2

Aurora A = target: T4, Aurora A (Homo sapiens, UniProt O14965); test: ADP-Glo kinase assay, Aurora A; type: biochemical
T4 construct: purchased Promega
T4 sequence (O14965 1-403): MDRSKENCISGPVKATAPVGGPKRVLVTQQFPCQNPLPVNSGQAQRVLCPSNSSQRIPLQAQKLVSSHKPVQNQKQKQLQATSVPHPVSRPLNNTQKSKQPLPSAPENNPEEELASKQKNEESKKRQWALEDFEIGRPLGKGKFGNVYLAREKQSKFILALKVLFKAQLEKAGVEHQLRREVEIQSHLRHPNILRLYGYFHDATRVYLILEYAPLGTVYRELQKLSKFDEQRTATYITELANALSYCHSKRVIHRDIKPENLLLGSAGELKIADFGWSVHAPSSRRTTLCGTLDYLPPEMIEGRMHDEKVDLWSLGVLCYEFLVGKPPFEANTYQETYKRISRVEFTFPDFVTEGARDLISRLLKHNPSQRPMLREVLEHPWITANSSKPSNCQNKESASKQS
Procedure: as §3, §4

[4] = tested on: K562 (chronic myelogenous leukemia); test: MTT cell proliferation assay, K562; type: cell-based; conditions: Homo sapiens, K562, 72 h of exposition, read-out: Anti-proliferative activity IC50, K562
Procedure: as §1, §2

[5] = tested on: HepG2 (human liver cancer); test: MTT cell proliferation assay, HepG2; type: cell-based; conditions: Homo sapiens, HepG2, 72 h, HepG2, 72 h of exposition, read-out: Anti-proliferative activity IC50, HepG2
Procedure: as §1, §2

HER4 = target: T5, HER4 (Homo sapiens, UniProt Q15303); test: ADP-Glo kinase assay, HER4; type: biochemical
T5 construct: purchased Promega
Procedure: as §3, §4

[6] = target: T6, IGF1R (insulin-like growth factor 1 receptor) (Homo sapiens, UniProt P08069); test: ADP-Glo kinase assay, IGF1R; type: biochemical
T6 construct: purchased Promega
Procedure: as §3, §4

KDR (VEGFR-2) = target: T7, KDR (VEGFR-2) (Homo sapiens, UniProt P35968); test: ADP-Glo kinase assay, KDR; type: biochemical
T7 construct: purchased Promega

[7] = tested on: MCF-7 (breast adenocarcinoma); test: MTT cell proliferation assay, MCF-7; type: cell-based; conditions: Homo sapiens, MCF7, MCF-7, 72 h of exposition, read-out: Anti-proliferative activity IC50, MCF-7
Procedure: as §1, §2

PDGFRβ = target: T8, PDGFRβ (Homo sapiens, UniProt P09619); test: ADP-Glo kinase assay, PDGFRβ; type: biochemical
T8 construct: purchased Promega
Procedure: as §3, §4

InsR (insulin receptor) = target: T9, InsR (insulin receptor) (Homo sapiens, UniProt P06213); test: ADP-Glo kinase assay, InsR; type: biochemical
T9 construct: purchased Promega
Procedure: as §3, §4

EGFR = target: T10, EGFR (Homo sapiens, UniProt P00533); test: ADP-Glo kinase assay, EGFR; type: biochemical
T10 construct: purchased Promega
T10 sequence (P00533 25-1210): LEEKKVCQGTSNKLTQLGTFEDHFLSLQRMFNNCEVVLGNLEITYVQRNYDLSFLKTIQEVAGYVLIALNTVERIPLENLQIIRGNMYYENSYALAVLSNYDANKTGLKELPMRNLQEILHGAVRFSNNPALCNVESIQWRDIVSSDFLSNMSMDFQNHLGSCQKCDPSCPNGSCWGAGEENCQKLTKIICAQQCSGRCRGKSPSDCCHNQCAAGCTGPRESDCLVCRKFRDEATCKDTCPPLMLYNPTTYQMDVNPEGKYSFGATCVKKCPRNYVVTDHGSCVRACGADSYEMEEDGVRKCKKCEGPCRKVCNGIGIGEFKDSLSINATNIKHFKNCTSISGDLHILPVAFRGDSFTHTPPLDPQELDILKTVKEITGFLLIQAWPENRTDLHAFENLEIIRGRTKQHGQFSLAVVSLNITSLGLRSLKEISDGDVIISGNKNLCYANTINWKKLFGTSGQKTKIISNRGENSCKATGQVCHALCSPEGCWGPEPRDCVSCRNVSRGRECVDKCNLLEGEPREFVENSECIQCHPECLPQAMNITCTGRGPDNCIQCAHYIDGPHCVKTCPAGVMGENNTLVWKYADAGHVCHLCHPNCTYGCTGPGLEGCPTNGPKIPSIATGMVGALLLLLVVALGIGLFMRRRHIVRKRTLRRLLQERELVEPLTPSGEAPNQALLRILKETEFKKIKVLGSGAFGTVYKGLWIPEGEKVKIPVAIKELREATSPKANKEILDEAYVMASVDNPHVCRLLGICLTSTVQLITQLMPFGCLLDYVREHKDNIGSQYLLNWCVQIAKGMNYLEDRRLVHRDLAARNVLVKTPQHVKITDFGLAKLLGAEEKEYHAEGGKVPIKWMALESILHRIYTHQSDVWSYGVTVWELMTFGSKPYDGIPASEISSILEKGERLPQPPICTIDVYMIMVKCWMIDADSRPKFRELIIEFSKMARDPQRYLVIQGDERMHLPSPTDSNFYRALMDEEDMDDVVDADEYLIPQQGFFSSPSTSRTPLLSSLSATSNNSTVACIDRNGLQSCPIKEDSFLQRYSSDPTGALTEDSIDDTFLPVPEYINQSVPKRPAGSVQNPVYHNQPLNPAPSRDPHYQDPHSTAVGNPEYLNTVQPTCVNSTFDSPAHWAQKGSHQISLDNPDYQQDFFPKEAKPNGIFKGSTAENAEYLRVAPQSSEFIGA

T1 sequence (P04626 23-1255): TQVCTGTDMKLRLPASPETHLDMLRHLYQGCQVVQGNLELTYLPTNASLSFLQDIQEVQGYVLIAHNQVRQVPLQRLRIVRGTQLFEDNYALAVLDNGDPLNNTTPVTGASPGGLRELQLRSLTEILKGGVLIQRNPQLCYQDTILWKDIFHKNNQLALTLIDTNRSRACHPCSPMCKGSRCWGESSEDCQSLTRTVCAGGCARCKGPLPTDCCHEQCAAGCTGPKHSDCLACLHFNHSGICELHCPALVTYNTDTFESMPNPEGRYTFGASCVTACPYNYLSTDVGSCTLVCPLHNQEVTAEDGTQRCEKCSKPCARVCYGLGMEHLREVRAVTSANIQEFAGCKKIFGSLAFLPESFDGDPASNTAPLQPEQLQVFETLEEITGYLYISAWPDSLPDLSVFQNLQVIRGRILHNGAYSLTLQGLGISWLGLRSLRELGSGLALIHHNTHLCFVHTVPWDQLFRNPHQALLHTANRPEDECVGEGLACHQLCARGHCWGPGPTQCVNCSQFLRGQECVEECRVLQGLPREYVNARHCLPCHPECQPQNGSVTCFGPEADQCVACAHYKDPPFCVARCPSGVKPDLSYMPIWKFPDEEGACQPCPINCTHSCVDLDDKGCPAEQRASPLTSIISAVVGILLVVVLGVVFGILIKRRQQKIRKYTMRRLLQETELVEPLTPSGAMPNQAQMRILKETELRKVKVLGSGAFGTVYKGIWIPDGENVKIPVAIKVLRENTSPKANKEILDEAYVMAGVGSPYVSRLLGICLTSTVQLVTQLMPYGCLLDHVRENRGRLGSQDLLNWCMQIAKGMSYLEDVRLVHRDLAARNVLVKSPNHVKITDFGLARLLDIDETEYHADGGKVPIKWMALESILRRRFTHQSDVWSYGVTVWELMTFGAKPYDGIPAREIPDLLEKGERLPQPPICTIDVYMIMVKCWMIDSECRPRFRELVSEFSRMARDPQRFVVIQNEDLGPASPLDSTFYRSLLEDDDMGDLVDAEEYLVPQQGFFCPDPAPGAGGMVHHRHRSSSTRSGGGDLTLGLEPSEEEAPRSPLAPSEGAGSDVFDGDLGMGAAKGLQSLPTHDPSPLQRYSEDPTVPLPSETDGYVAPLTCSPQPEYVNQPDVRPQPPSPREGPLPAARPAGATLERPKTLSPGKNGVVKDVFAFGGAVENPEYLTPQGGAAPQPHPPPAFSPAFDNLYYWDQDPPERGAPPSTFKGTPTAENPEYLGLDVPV
T5 sequence (Q15303 26-1308): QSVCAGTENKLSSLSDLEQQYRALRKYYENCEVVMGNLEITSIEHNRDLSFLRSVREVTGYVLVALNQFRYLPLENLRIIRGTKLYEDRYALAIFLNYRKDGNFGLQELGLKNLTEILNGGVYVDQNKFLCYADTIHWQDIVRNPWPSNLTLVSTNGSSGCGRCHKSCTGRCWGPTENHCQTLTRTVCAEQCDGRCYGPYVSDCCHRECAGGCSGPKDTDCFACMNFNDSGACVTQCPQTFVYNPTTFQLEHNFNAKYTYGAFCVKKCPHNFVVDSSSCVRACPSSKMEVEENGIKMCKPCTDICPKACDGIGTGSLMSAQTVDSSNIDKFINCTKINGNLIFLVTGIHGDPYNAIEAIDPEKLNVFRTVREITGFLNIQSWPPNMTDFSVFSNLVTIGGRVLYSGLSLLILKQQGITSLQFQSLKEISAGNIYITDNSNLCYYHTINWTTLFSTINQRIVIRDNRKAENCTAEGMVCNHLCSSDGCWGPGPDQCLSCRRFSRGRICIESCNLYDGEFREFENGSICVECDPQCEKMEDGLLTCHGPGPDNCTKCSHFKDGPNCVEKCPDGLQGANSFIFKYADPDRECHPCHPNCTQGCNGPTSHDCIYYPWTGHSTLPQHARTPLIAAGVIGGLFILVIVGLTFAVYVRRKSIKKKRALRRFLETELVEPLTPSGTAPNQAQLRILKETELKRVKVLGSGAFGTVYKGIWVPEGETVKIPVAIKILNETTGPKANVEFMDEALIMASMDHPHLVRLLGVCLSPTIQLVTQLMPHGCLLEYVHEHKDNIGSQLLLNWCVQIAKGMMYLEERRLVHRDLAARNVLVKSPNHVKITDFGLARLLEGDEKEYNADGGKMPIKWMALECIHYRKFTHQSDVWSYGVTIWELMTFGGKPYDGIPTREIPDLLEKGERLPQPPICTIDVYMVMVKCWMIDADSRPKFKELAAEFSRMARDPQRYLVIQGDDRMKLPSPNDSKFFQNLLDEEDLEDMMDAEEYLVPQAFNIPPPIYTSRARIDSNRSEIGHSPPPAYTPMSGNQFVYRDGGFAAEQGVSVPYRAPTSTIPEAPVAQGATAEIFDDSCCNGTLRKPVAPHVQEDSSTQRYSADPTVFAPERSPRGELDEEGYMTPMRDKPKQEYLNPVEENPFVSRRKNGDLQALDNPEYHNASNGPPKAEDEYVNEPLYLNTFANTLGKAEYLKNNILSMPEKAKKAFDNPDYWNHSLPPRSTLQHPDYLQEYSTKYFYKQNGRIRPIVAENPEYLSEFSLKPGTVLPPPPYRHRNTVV
T2 sequence (P16234 24-1089): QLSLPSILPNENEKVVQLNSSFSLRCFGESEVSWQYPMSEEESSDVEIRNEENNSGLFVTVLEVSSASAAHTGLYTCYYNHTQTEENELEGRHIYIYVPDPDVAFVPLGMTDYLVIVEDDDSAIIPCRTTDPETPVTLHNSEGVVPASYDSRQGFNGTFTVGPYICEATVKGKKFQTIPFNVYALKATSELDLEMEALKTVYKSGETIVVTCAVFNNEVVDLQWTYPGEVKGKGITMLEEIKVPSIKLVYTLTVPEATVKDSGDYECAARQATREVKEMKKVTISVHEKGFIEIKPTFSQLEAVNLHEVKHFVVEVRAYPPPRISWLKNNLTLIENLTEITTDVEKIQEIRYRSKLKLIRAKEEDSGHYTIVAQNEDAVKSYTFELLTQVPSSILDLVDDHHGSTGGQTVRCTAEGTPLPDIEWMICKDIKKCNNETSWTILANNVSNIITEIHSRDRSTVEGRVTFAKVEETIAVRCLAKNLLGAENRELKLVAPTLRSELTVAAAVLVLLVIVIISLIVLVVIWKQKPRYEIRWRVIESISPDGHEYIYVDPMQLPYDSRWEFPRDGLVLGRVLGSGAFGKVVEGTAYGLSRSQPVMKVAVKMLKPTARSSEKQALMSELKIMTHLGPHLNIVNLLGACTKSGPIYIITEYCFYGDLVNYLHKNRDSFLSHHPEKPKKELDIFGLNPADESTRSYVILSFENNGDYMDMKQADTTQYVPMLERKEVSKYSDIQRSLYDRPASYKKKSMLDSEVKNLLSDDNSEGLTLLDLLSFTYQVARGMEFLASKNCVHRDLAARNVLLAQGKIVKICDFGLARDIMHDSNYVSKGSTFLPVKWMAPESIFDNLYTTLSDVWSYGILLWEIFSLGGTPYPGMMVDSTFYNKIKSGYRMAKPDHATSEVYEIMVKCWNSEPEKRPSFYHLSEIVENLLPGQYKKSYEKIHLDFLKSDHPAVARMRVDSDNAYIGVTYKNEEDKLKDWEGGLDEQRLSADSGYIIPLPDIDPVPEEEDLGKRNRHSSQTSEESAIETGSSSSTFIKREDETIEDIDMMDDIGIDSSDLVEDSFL
T3 sequence (Q96GD4 whole entry): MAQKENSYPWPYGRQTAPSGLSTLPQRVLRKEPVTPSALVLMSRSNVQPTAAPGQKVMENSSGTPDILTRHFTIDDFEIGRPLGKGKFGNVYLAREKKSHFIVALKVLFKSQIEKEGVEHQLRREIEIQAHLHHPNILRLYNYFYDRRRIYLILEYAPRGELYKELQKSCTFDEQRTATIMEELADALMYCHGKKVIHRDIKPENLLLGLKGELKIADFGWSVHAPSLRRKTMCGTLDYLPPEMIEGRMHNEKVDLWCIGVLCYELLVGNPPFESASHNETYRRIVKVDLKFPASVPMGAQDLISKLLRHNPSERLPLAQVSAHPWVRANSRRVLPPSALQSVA

Structure (SMILES) | IC50 [1] | IC50 (A549 (lung carcinoma)) | inhibition at 10 µM (HER2) | inhibition at 10 µM (PDGFRα) | inhibition at 10 µM (Aurora B) | IC50 [2] | IC50 [3] | melting point | inhibition at 10 µM (Aurora A) | IC50 [4] | IC50 [5] | inhibition at 10 µM (HER4) | inhibition at 10 µM [6] | inhibition at 10 µM (KDR (VEGFR-2)) | IC50 [7] | inhibition at 10 µM (PDGFRβ) | inhibition at 10 µM (InsR (insulin receptor)) | inhibition at 10 µM (EGFR)
Cc1cn(-c2cc(NC(=O)c3ccc(C(=O)Nc4cc([N+](=O)[O-])ccc4C)cc3)cc(C(F)(F)F)c2)cn1 [Compound 24, N1-(3-(4-methyl-1H-imidazol-1-yl)-5-(trifluoromethyl)phenyl)-N4-(2-methyl-5-nitrophenyl)terephthalamide] | > 50 µM | > 50 µM | 49% | 0% | 3% | 36.5 ± 0.86 µM | 26.4 ± 3.35 µM | 269 to 270 °C | 0% | 17 ± 0.2 µM | > 50 µM | 3% | 0% | 0% | 15.5 ± 1.16 µM | 0% | 0% | 2%
Cc1cn(-c2cc(NC(=O)c3cccc(C(=O)Nc4cc(-n5cnc(C)c5)cc(C(F)(F)F)c4)c3)cc(C(F)(F)F)c2)cn1 [Compound 10, N1,N3-bis(3-(4-methyl-1H-imidazol-1-yl)-5-(trifluoromethyl)phenyl)isophthalamide] | 13.2 ± 1.3 µM | > 50 µM | 19% | 17% | 0% | 13 ± 0.3 µM | 35.8 ± 3.19 µM | 304 to 306 °C | 0% | 26 ± 2.38 µM | 23.2 ± 1.81 µM | 0% | 0% | 33% | 38.5 ± 1.95 µM | 0% | 0% | 1%
O=C(Nc1cccc(C(F)(F)F)c1)c1cccc(C(=O)N2CCN(C(=O)c3cccc(F)c3)CC2)c1 [Compound 9, 3-(4-(3-Fluorobenzoyl)piperazine-1-carbonyl)-N-(3-(trifluoromethyl)phenyl)benzamide] | > 50 µM | > 50 µM | 64% | 20% | 0% | 26.3 ± 1.88 µM | 21.9 ± 1.59 µM | 97 to 101 °C | 0% | 21 ± 0.59 µM | 33.3 ± 3.45 µM | 37% | 0% | 33% | 26.3 ± 3.71 µM | 24% | 0% | 90%
CCN(CC)CCNC(=O)c1c(C)[nH]c(/C=C2\C(=O)Nc3ccc(F)cc32)c1C [Sunit., sunitinib, reference compound] |  |  |  |  | 90% |  |  |  | 68% |  |  |  |  |  |  |  |  | 
O=C(Nc1cccc(C(F)(F)F)c1)c1cccc(C(=O)N2CCN(C(=O)c3ccccc3F)CC2)c1 [Compound 8, 3-(4-(2-Fluorobenzoyl)piperazine-1-carbonyl)-N-(3-(trifluoromethyl)phenyl)benzamide] | > 50 µM | > 50 µM | 0% | 0% | 0% | 24.9 ± 1.17 µM | 18.2 ± 1.02 µM | 145 to 147 °C | 0% | 18.3 ± 1.15 µM | 35.49 ± 0.34 µM | 0% | 0% | 34% | 24.7 ± 5.95 µM | 0% | 6% | 14%
COc1ccc(C(=O)N2CCN(C(=O)c3ccc(C(=O)Nc4cccc(C(F)(F)F)c4)cc3)CC2)cc1 [Compound 19, 4-(4-(4-Methoxybenzoyl)piperazine-1-carbonyl)-N-(3-(trifluoromethyl)phenyl)benzamide] | > 50 µM | > 50 µM | 39% | 19% |  | > 50 µM | > 50 µM | 202 to 205 °C |  | > 50 µM | > 50 µM | 2% | 0% | 16% | > 50 µM | 20% | 17% | 4%
